# Active and inactive are the calls of the source. No cut-off for these calls is given here.
# Key:
# Type in all cases: functional, organism-based
# [1] = test system: Variola virus; assay: Antiviral activity against Variola virus NEP73-175 infected in african green monkey BSC-40 cells at 0.005 uM by IHC staining-based comet tail reduction assay
# [2] = test system: Variola virus; assay: Antiviral activity against Variola virus BSH74-sol infected in african green monkey BSC-40 cells at 0.05 to 0.5 uM by IHC staining-based comet tail reduction assay
# [3] = test system: Variola virus; assay: Antiviral activity against Variola virus NEP73-175 infected in african green monkey BSC-40 cells at 0.005 uM assessed as reduction in virus-induced cytopathic effect
structure (smiles),measurement,setting,value
O=C(NN1C(=O)[C@@H]2[C@@H]3C=C[C@@H]([C@H]4C[C@@H]34)[C@@H]2C1=O)c1ccc(C(F)(F)F)cc1 [TECOVIRIMAT],Activity,[1],inactive
same,Activity,[2],Active
same,Activity,[3],inactive

# — ChEMBL document CHEMBL1629642, “In vitro efficacy of ST246 against smallpox and monkeypox” (Antimicrob Agents Chemother, 2009)
